Measurements: US12448483B2, “Process for preparing carboxylic acid ester-cross-linked polyglycerol esters of 3-hydroxybutyric acid” (KetoLipix Therapeutics GmbH, priority 2020, dated 2025)

Key:
[1] = even if several grams are taken; cited from earlier work
[2] = Viscosity of samples from the structural analysis; format: physicochemical
Procedure: For structural analysis, a monodiglycerol ester of 3-hydroxybutyric acid crosslinked with succinic acid is produced according to synthesis route (A) and characterized by gel permeation chromatography (GPC) and acid number determination.
(§1) Subsequently, in the second method step (b), 100 g of the monodiglycerol ester of 3-hydroxybutyric acid are caused to react with 10 g succinic acid anhydride according to a first batch with stirring at 80° C. for 20 h and the water formed is continuously withdrawn by distillation. A sample is taken for further analysis (Sample A) and then another 7 g succinic acid anhydride are added and caused to react at 120° C. for another 6 h. The water formed is withdrawn by continuous distillation. Then another sample is taken for analysis (sample C).
as §1, with “Furthermore,” for “Subsequently,”, “(b), according to a second approach,” for “(b),”, “with the addition of 100 μL of titanium tetrabutylate (catalyst)” for “according to a first batch”, “(sample B)” for “(Sample A)”, “80°” for “120°”, “D).” for “C).”

Molecule	Duration of ketosis [1]	Viscosity at 25° C. [2]
CC(O)CC(=O)O (centres unmarked) [3-hydroxybutyric acid]	three to four	–
monodiglycerol esters of 3-hydroxybutyric acid [Educt]	–	15,700 Pas
